Test results reported in patent publication US20220313700A1, “METHODS FOR TREATING MAP3K8 POSITIVE CANCERS” (CELL RESPONSE, INC., priority 2019, published 2022).
Read-outs that look alike come from different tables or passages of the source.

Key:
H1975 NSCLC cell line = assay: Alamar blue proliferation assay, H1975; type: cell-based; conditions: H1975, 72 hours, vs no drug, FIG. 14, 16, 17
Description: (§1) The experiments have been performed in the following way. Three thousand cells in suspension in the medium normally used to grow these particular cells have been placed in an individual well within a 96 well tissue culture plate. Following cell attachment, the drugs have added to the wells to achieve the final indicated concentration. Subsequently, the cells were incubated for 72 hours in a standard tissue culture incubator at 37 degrees Celsius in an atmosphere containing 5% CO2. Following 66 hours, Alamar blue was added to the cells. Six hours later (72 hours from the addition of drug) the 96 well plate was placed in a fluorescence plate reader to measure for Alamar blue fluorescence (excitation wavelength of 540-570 nm (peak excitation is 560 nm)). Fluorescence emission was read at 580-610 nm (peak emission is 590 nm). This enabled the determination of the number of live cells present in each well. Wells containing each drug were compared to control wells where no drug was added. In each experiment, each condition was performed in multiple technical repeats of between four and eight times, by using between four and eight wells that were treated identically Each and every experiment was repeated at least three times on different days. In the data shown here, a representative example of each experiment is shown.

CRC cell line HT29 = assay: Alamar blue proliferation assay, HT29; type: cell-based; conditions: HT29, 72 hours, monotherapy, FIG. 13
Description: as §1

HCT15 CRC cell line = assay: Alamar blue proliferation assay, HCT15; type: cell-based; conditions: HCT15, 72 hours; for inhibitory effect on proliferation (in words): FIG. 7, FIG. 9, FIG. 19, FIG. 20; for inhibition of proliferation: vs no drug, FIG. 8, FIG. 9
Description: as §1, with “Following cell attachment, the drugs have added to the wells to achieve the final indicated concentration.” left out, “days.” for “days. In the data shown here, a representative example of each experiment is shown.”

DLD1 CRC cell line = assay: Alamar blue proliferation assay, DLD1; type: cell-based; conditions: DLD1, 72 hours; for inhibitory effect on proliferation (in words): FIG. 7, FIG. 9, FIG. 20
Description: as §1, with “Following cell attachment, the drugs have added to the wells to achieve the final indicated concentration.” left out, “days.” for “days. In the data shown here, a representative example of each experiment is shown.”

H23 NSCLC cell line = assay: Alamar blue proliferation assay, H23; type: cell-based; conditions: H23, 72 hours, vs no drug
Description: as §1

H358 NSCLC cell line = assay: Alamar blue proliferation assay, H358; type: cell-based; conditions: H358, 72 hours, vs no drug
Description: as §1

[1] = tested on: metastatic ROS1 positive non-small cell lung cancer (NSCLC) patients; conditions: cited from earlier work
ERK phosphorylation = conditions: cited from earlier work
COT = COT (Homo sapiens, UniProt P41279); conditions: cited from earlier work
COT, sequence (P41279 whole entry): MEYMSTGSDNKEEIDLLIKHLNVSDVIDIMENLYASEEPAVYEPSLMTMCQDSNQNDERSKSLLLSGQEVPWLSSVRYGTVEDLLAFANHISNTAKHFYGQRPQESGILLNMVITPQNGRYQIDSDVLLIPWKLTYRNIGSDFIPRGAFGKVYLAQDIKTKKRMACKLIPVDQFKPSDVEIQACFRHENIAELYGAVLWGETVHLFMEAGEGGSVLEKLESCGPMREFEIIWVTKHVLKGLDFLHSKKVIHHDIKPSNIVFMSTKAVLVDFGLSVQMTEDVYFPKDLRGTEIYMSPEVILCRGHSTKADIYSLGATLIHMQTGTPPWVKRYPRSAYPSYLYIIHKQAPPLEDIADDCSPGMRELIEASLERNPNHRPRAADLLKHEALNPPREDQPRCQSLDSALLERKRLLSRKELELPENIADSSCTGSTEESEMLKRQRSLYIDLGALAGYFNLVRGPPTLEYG

[2] = tested on: IKKβ, JNK1α, p38, EGFR, CK1α, CDK2, JAK3, MST4, GSK3β; conditions: cited from earlier work
A549 NSCLC cell line = assay: Alamar blue proliferation assay, A549; type: cell-based; conditions: A549, 72 hours
Description: as §1

[3] = tested on: HPAFII pancreatic cancer cell line; assay: Alamar blue proliferation assay, HPAFII; type: cell-based; conditions: 72 hours, vs no drug
Description: as §1

[4] = tested on: BxPC3 pancreatic cancer cell line; assay: Alamar blue proliferation assay, BxPC3; type: cell-based; conditions: BxPC3, 72 hours, vs no drug
Description: as §1

NSCLC H1975 cell line = assay: siRNA knockdown proliferation assay, H1975; type: cell-based; conditions: H1975, 200 nM, FIG. 21B
Description: as §1, with “Following cell attachment, the drugs have added to the wells to achieve the final indicated concentration.” left out, “days.” for “days. In the data shown here, a representative example of each experiment is shown.”

[5] = tested on: NSCLC patients with EGFR mutations; conditions: cited from earlier work
intact blood cells = conditions: cited from earlier work
[6] = tested on: four other related kinases; conditions: cited from earlier work
STE1 NSCLC cell line = assay: Alamar blue proliferation assay, STE1; type: cell-based; conditions: STE1, 72 hours, FIG. 18
Description: as §1

11-18 NSCLC cell line = assay: Alamar blue proliferation assay, 11-18; type: cell-based; conditions: 11-18, 72 hours, FIG. 14, FIG. 17
Description: as §1

[7] = tested on: LOVO colorectal cell line; assay: Alamar blue proliferation assay, LOVO; type: cell-based; conditions: 72 hours, FIG. 7, FIG. 10
Description: as §1, with “Following cell attachment, the drugs have added to the wells to achieve the final indicated concentration.” left out, “days.” for “days. In the data shown here, a representative example of each experiment is shown.”

## COc1cc2c(Nc3ccc(Br)cc3F)ncnc2cc1OCC1CCN(C)CC1 [vandetanib]
H1975 NSCLC cell line
  inhibition of proliferation: 20%

## CN(C)C1CCN(C(=O)c2ccc(NC(=O)Nc3ccc(-c4nc(N5CCOCC5)nc(N5CCOCC5)n4)cc3)cc2)CC1 [Gedatolisib]
CRC cell line HT29
  inhibitory effect on proliferation (in words): significant inhibitory effect
HCT15 CRC cell line
  inhibitory effect on proliferation (in words): little to no inhibition
DLD1 CRC cell line
  inhibitory effect on proliferation (in words): little to no inhibition

## C=CC(=O)N1CCN(c2nc(=O)n(-c3c(C)ccnc3C(C)C)c3nc(-c4c(O)cccc4F)c(F)cc23)[C@@H](C)C1 [AMG510, 6-fluoro-7-(2-fluoro-6-hydroxyphenyl)-1-[4-methyl-2-(propan-2-yl)pyridin-3-yl]-4-[(2S)-2-methyl-4-(prop-2-enoyl)piperazin-1-yl]-1H,2H-pyrido[2,3-d]pyrimidin-2-one]
H23 NSCLC cell line
  inhibition of proliferation: 50%
H358 NSCLC cell line
  inhibition of proliferation: 30%

## CCc1cc2c(cc1N1CCC(N3CCOCC3)CC1)C(C)(C)c1[nH]c3cc(C#N)ccc3c1C2=O [alectinib]
[1]; in vivo
  clinical benefit in ROS1 positive patients: do not possess clinical benefit

## CN1CCN(c2ccc(C(=O)Nc3n[nH]c4ccc(Cc5cc(F)cc(F)c5)cc34)c(NC3CCOCC3)c2)CC1 [entrectinib]
[1]; in vivo
  duration of response: 28.6 months
  objective response rate (ORR): 78%

## Cc1c(CNCCO)cncc1-c1ccc2[nH]nc(-c3nc4ccccc4[nH]3)c2c1 [FIG. 2B]
ERK phosphorylation
  inhibition of ERK phosphorylation: inhibits ERK phosphorylation

## c1ccc2[nH]c(-c3n[nH]c4ccccc34)nc2c1 [FIG. 2A without methyl group]
COT; Hu et al. 2011, indazoles with benzimidazole ring, read-out: COT (TPL2) IC50
  IC50: 109 nM
[2]
  kinase selectivity against CDK2, JAK3, MST4, GSK3β: less selectivity
  kinase selectivity against IKKβ, JNK1α, p38, EGFR, CK1α: good kinase selectivity

## CN(C)C/C=C/C(=O)Nc1cc2c(Nc3ccc(F)c(Cl)c3)ncnc2cc1O[C@H]1CCOC1 [afatinib]
H1975 NSCLC cell line
  inhibition of proliferation: 35%

## CC(C)Nc1cc(-c2c[nH]c(C(=O)N[C@H](CO)c3cccc(Cl)c3)c2)c(Cl)cn1 [Ulixertinib]
A549 NSCLC cell line; vs no drug, FIG. 6
  inhibition of proliferation: 10%
[3]
  inhibition of proliferation: 15%
HCT15 CRC cell line
  inhibition of proliferation: 20%
[4]
  inhibition of proliferation: 32%
DLD1 CRC cell line; vs no drug, FIG. 8, FIG. 9
  inhibition of proliferation: approximately 20%

## C=CC(=O)Nc1cc(Nc2nccc(-c3cn(C)c4ccccc34)n2)c(OC)cc1N(C)CCN(C)C [Osimertinib]
NSCLC H1975 cell line
  reduction of relative cell number: ~50%
[5]; osimertinib, or erlotinib/gefitinib/afatinib followed by osimertinib
  progression-free survival, average: 18 months
[5]; patients relapsed after first or second line EGFR inhibitors
  patients who respond: Fifty percent

## NC(=O)c1cc2c(-c3cccc(-c4ccccc4)c3)cnc(N)c2s1 [FIG. 3B]
Intact blood cells
  activity when added to intact blood cells: active
COT; thieno[2,3-c]pyridines, George et al. 2008, Cusack et al. 2009, read-out: COT IC50
  IC50: 170 nM
[6]
  inhibition of four other related kinases relative to COT: at least ten-fold less effective

## C[C@@H](Oc1cc(-c2cnn(C3CCNCC3)c2)cnc1N)c1c(Cl)ccc(F)c1Cl [crizotinib]
[1]; clinical trials
  patients in whom treatment was initially effective: 70-80%

## C[C@H]1Oc2cc(cnc2N)-c2c(nn(C)c2C#N)CN(C)C(=O)c2ccc(F)cc21 [loraltinib]
STE1 NSCLC cell line
  inhibition of proliferation: 81%

## COc1cc2c(Oc3ccc(NC(=O)C4(C(=O)Nc5ccc(F)cc5)CC4)cc3F)ccnc2cc1OCCCN1CCOCC1 [foretinib]
[1]; in vivo
  clinical benefit in ROS1 positive patients: do not possess clinical benefit

## CCN1CCC(n2cc(CNc3cc(Cl)c4ncc(C#N)c(Nc5ccc(F)c(Cl)c5)c4c3)nn2)CC1 [COT inhibitor, 3-Quinolinecarbonitrile, 8-chloro-4-[(3-chloro-4-fluorophenyl)amino]-6-[[[1-(1-ethyl-4-piperidinyl)-1H-1,2,3-triazol-4-yl]methyl]amino]-3-quinolinecarbonitrile]
11-18 NSCLC cell line
  inhibitory effect on proliferation (in words): higher level of inhibition
[7]
  inhibitory effect on proliferation (in words): variable, but significant, inhibitory effect
A549 NSCLC cell line; FIG. 5, FIG. 6
  inhibitory effect on proliferation (in words): no effect
HCT15 CRC cell line
  inhibitory effect on proliferation (in words): variable, but significant, inhibitory effect
  inhibition of proliferation: 30%
H23 NSCLC cell line
  inhibition of proliferation: about 30%
H1975 NSCLC cell line
  inhibition of proliferation: 20%
H358 NSCLC cell line
  inhibition of proliferation: about 30%
DLD1 CRC cell line
  inhibitory effect on proliferation (in words): variable, but significant, inhibitory effect
